Where a SMILES comes first, the peptide text is derived from it.
System: db/db mice
Experiment: Oral test of tolerance to maltose in vivo in db/db mice (Example 5)
Conditions: 500 mg/kg by gastric gavage, maltose 2 g/kg, resting value 150 mg/dl
Protocol: The inhibitory activity of the AP and VAP peptides and the effect of the AP and VAP peptides on the glycaemic response can be measured in an oral test of tolerance to maltose in vivo in db/db mice that have a glucose intolerance of genetic origin. The mice are 4 weeks of age and each mouse is its own control. A dose of maltose (2 g/kg) was used in order to cause a temporary increase in glycaemia. Four (4) oral tests of tolerance to maltose (2 g/kg) were carried out on each mouse with a minimum interval of 48 h. The order was determined so as to cancel a potentially confounding effect of a change in body composition of the mice during the 3 study weeks. […] The maltose and the test products were administered directly by the oral route (gastric gavage), diluted in 0.9% saline solution. […] • Main Criterion: […] […] The secondary criteria for evaluation were: […] The AUC (area under the curve) was estimated by the trapezium method.

Compound	maximum glycaemia value subtracted from the resting value (ΔCmax glycaemia)
C[C@H](N)C(=O)N1CCC[C@H]1C(=O)O [AP] (H-Ala-Pro-OH; N-terminus and C-terminus assumed)	approximately 280 mg/dl

Same assay, conditions: 500 mg/kg, alone or in combination, maltose 2 g/kg

Compound	effect on the glycaemia of the mice during the test of tolerance to maltose
C[C@H](N)C(=O)N1CCC[C@H]1C(=O)O [AP] (H-Ala-Pro-OH; N-terminus and C-terminus assumed)	lower the glycaemia
CC(C)[C@H](N)C(=O)N[C@@H](C)C(=O)N1CCC[C@H]1C(=O)O [VAP] (H-Val-Ala-Pro-OH; N-terminus and C-terminus assumed)	lower the glycaemia

Same assay, conditions: 500 mg/kg, maltose 2 g/kg

Compound	effect of treatment on the maximum glycaemia value
C[C@H](N)C(=O)N1CCC[C@H]1C(=O)O [AP] (H-Ala-Pro-OH; N-terminus and C-terminus assumed)	significant effect

Same assay, conditions: 500 mg/kg, maltose 2 g/kg, 0-120 minutes

Compound	effect on the glucose AUC during the oral test of tolerance to maltose
C[C@H](N)C(=O)N1CCC[C@H]1C(=O)O [AP] (H-Ala-Pro-OH; N-terminus and C-terminus assumed)	beneficial effect

Molecular target: saccharase (Homo sapiens, UniProt P14410)
Sequence (P14410 whole entry): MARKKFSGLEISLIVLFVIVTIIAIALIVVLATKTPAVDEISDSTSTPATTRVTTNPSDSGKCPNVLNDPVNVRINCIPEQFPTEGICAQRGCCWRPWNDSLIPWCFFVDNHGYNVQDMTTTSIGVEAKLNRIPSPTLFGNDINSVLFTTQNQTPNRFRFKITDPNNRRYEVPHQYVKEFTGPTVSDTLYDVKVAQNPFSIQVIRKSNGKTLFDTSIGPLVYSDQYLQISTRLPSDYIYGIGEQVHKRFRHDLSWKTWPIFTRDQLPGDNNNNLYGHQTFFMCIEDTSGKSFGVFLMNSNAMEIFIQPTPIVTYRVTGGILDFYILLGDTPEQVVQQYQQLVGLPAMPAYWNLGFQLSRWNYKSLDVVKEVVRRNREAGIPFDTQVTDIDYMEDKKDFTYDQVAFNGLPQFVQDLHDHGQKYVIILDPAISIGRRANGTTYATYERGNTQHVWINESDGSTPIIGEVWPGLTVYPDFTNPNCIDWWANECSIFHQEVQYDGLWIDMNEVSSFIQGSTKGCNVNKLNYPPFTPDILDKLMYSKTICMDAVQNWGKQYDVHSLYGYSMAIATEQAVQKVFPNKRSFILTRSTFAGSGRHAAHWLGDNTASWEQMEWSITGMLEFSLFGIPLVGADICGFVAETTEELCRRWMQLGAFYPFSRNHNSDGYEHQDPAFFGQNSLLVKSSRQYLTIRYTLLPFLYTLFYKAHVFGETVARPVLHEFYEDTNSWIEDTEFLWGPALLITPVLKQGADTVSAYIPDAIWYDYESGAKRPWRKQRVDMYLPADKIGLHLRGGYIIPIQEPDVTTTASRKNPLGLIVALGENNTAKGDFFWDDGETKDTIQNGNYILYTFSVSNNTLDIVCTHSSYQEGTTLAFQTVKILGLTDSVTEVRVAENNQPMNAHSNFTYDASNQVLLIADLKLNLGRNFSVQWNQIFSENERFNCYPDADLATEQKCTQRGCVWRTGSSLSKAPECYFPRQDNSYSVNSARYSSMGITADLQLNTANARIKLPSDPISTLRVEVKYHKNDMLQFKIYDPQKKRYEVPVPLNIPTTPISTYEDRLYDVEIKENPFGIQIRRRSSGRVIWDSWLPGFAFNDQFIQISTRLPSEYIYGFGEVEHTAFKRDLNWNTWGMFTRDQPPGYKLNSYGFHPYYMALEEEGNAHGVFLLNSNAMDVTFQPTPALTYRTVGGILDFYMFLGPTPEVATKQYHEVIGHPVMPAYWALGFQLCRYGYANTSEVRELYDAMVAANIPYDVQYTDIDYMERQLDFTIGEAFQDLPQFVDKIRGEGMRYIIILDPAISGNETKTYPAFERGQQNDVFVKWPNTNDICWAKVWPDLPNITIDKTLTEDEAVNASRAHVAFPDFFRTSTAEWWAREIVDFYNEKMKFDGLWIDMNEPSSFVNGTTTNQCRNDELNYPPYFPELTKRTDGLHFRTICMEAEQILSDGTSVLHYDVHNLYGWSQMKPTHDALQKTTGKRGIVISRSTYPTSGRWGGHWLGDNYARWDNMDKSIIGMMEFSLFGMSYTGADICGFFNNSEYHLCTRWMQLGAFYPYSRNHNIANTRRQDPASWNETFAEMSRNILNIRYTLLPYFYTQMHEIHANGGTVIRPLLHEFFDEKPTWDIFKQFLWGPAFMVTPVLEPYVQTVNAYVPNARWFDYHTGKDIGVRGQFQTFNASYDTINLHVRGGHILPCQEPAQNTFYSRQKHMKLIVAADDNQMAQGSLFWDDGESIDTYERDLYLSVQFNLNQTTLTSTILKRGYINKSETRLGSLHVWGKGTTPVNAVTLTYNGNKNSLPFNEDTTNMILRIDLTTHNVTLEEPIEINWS
Experiment: not given
Conditions: in particular saccharase; cited from earlier work

Compound	mode of inhibition of alpha-glucosidase
OCCN1C[C@H](O)[C@@H](O)[C@H](O)[C@H]1CO [Miglitol, miglitol, reference compound]	competitively and reversibly

Molecular target: recombinant alpha-glucosidase from Saccharomyces cerevisiae, which is a maltase (Saccharomyces cerevisiae, UniProt P53341)
Sequence (P53341 whole entry): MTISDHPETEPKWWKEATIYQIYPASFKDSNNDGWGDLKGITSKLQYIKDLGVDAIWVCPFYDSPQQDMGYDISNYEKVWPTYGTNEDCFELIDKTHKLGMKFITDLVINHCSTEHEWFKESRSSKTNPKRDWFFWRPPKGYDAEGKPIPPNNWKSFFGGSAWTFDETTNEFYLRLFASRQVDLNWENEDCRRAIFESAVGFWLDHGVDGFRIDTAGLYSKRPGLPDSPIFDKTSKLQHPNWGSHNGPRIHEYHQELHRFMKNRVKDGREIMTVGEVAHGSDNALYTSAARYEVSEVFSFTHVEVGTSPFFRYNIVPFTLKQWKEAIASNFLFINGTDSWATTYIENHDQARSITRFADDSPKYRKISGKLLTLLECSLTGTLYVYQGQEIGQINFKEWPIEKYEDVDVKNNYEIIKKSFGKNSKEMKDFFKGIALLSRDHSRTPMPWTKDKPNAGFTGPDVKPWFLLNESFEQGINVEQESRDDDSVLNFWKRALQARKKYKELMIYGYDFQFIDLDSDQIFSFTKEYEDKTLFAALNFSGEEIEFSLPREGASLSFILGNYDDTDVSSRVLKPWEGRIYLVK
Experiment: biochemical
Conditions: IC50 on α-glucosidase
Protocol: The synthetic peptides were supplied by GENOSPHERE Biotechnologies.
The alpha-glucosidase used is the recombinant alpha-glucosidase from Saccharomyces cerevisiae, which is a maltase.
The samples were solubilized beforehand in deionized water containing 10% of DMSO (dimethyl sulphoxide).
After incubation at 37° C. for 20 minutes, 20 μL of the substrate p-NPG (p-nitrophenyl glucopyranoside) at 2.5 mM (prepared in the same buffer as mentioned above) was added to the mixture in order to start the reaction.
The reaction medium was incubated for 30 minutes at 37° C. and then the reaction was stopped by adding 80 μL of a solution of sodium carbonate (Na2CO3) at 0.3M.
The quantity of product formed (p-nitrophenyl (p-NP) of yellow colour) was measured by spectrophotometry (absorbance at 410 nm, VersaMax™, Microplate Reader).
The test was carried out in a 96-well microplate.
All the inhibition tests were carried out in triplicate.
The percentage inhibition was calculated from the following equation: […]
OD sample assay corresponds to the optical density obtained for the mixture “sample+enzyme+substrate”.
OD assay blank corresponds to the optical density obtained for the mixture “sample+buffer”.
OD control assay corresponds to the optical density obtained for the mixture “buffer+enzyme+substrate”.
OD control blank corresponds to the optical density obtained for the buffer.

Compound	IC50
C[C@H](N)C(=O)N1CCC[C@H]1C(=O)O [AP] (H-Ala-Pro-OH; N-terminus and C-terminus assumed)	0.0136 ± 0.00092 mM

Same assay, conditions: Inhibitory activity on α-glucosidase (IC50) in mM, Table 1; enzyme 0.2 U/mL, p-NPG 2.5 mM, pH 6.8, 37° C.

Compound	IC50
CC(C)C[C@H](N)C(=O)N[C@@H](CCCCN)C(=O)N1CCC[C@H]1C(=O)O [LKP] (H-Leu-Lys-Pro-OH; N-terminus and C-terminus assumed)	7.11 ± 0.2 mM

Same assay, conditions: Table 1; enzyme 0.2 U/mL, p-NPG 2.5 mM, pH 6.8, 37° C.

Compound	Inhibitory activity on α-glucosidase (IC50) in mM
AKK: synthetic peptide of sequence AKK	No inhibition
VIY: peptide sequence VIY of Table 1	No inhibition

Same assay, conditions: Table 1; enzyme 0.2 U/mL, p-NPG 2.5 mM, pH 6.8, 37° C.; read-out: Inhibitory activity on α-glucosidase (IC50)

Compound	IC50
OCCN1C[C@H](O)[C@@H](O)[C@H](O)[C@H]1CO [Miglitol, miglitol, reference compound]	39 ± 0.96 mM
NCCCC[C@H](N)C(=O)N[C@@H](Cc1c[nH]c2ccccc12)C(=O)O [KW] (H-Lys-Trp-OH; N-terminus and C-terminus assumed)	12.8 ± 0.98 mM
CC[C@H](C)[C@H](N)C(=O)N[C@@H](Cc1ccc(O)cc1)C(=O)O [IY] (H-Ile-Tyr-OH; N-terminus and C-terminus assumed)	12.3 mM

Same assay, conditions: read-out: IC50 on α-glucosidase

Compound	IC50
CC(C)[C@H](N)C(=O)N[C@@H](C)C(=O)N1CCC[C@H]1C(=O)O [VAP] (H-Val-Ala-Pro-OH; N-terminus and C-terminus assumed)	0.02 ± 0.00021 mM

Same assay, conditions: relative to acarbose and miglitol

Compound	median inhibitory concentration of alpha-glucosidase (maltase), times lower relative to the reference inhibitors
C[C@H](N)C(=O)N1CCC[C@H]1C(=O)O [AP] (H-Ala-Pro-OH; N-terminus and C-terminus assumed)	approximately 900 times
CC(C)[C@H](N)C(=O)N[C@@H](C)C(=O)N1CCC[C@H]1C(=O)O [VAP] (H-Val-Ala-Pro-OH; N-terminus and C-terminus assumed)	approximately 600 times

Same assay, conditions: relative to the AP and VAP peptides

Compound	inhibition of alpha-glucosidase in words
NCCCC[C@H](N)C(=O)N[C@@H](Cc1c[nH]c2ccccc12)C(=O)O [KW] (H-Lys-Trp-OH; N-terminus and C-terminus assumed)	weak inhibitors
CC(C)C[C@H](N)C(=O)N[C@@H](CCCCN)C(=O)N1CCC[C@H]1C(=O)O [LKP] (H-Leu-Lys-Pro-OH; N-terminus and C-terminus assumed)	weak inhibitors
CC[C@H](C)[C@H](N)C(=O)N[C@@H](Cc1ccc(O)cc1)C(=O)O [IY] (H-Ile-Tyr-OH; N-terminus and C-terminus assumed)	weak inhibitors

Molecular target: T1, recombinant alpha-glucosidase from S. cerevisiae (maltase) (Saccharomyces cerevisiae, UniProt P53341)
T1 construct: purchased Sigma G0660-750UN
T1 sequence (P53341 whole entry): as above
Experiment: biochemical
Type: biochemical
Conditions: Inhibitory activity on α-glucosidase (IC50) in mg/ml, Table 2
Protocol: 20 μl of α-glucosidase in 0.1M potassium phosphate buffer (pH 6.8) at 1.6 U/ml is mixed with 8 μl of the peptide sample or of the reference inhibitor at different concentrations.
The samples are solubilized beforehand in milliQ water containing 10% DMSO (available from Sigma under reference 472301).
After preincubation at 37° C. for 15 min, 20 μl of the substrate p-NPG at 20 mM in 0.1M potassium phosphate buffer (pH 6.8) is added to the mixture in order to start the reaction.
The reaction medium is incubated for 30 min at 37° C. and then the reaction is stopped by adding 80 μl of a 1M solution of sodium carbonate (Na2CO3).
The quantity of product formed (p-nitrophenyl) is measured by reading the absorbance at 410 nm using the Fluostar Omega spectrophotometer (BMG Labtech, Germany).
(§1) All the inhibition tests are carried out in triplicate.
The enzyme used is recombinant alpha-glucosidase from S. cerevisiae (it is a maltase available from Sigma, under reference G0660-750UN).
The substrate used is 4-nitrophenyl α-D-glucopyranoside (p-NPG) (available from Sigma under reference N1377).

Compound	IC50
OCCN1C[C@H](O)[C@@H](O)[C@H](O)[C@H]1CO [Miglitol, miglitol, reference compound]	37.5 mM
C[C@H](N)C(=O)N1CCC[C@H]1C(=O)O [AP] (H-Ala-Pro-OH; N-terminus and C-terminus assumed)	0.0134 mM
CC(C)C[C@H](N)C(=O)N[C@@H](CCCCN)C(=O)N1CCC[C@H]1C(=O)O [LKP] (H-Leu-Lys-Pro-OH; N-terminus and C-terminus assumed)	7.1 mM

Same assay, conditions: Inhibitory activity on α-glucosidase (IC50) in mmol/l, Table 2; enzyme 1.6 U/ml, p-NPG 20 mM, pH 6.8, 37° C.

Compound	IC50
OCCN1C[C@H](O)[C@@H](O)[C@H](O)[C@H]1CO [Miglitol, miglitol, reference compound]	37.5 ± 0.69 mM
CC(C)C[C@H](N)C(=O)N[C@@H](CCCCN)C(=O)N1CCC[C@H]1C(=O)O [LKP] (H-Leu-Lys-Pro-OH; N-terminus and C-terminus assumed)	7.11 ± 0.2 mM

Same assay, conditions: Table 2; enzyme 1.6 U/ml, p-NPG 20 mM, pH 6.8, 37° C.; read-out: Inhibitory activity on α-glucosidase (IC50)

Compound	IC50
NCCCC[C@H](N)C(=O)N[C@@H](Cc1c[nH]c2ccccc12)C(=O)O [KW] (H-Lys-Trp-OH; N-terminus and C-terminus assumed)	12.8 ± 0.98 mM
CC[C@H](C)[C@H](N)C(=O)N[C@@H](Cc1ccc(O)cc1)C(=O)O [IY] (H-Ile-Tyr-OH; N-terminus and C-terminus assumed)	12.3 ± 0.25 mM

Same assay, conditions: Table 2; read-out: Inhibitory activity on α-glucosidase (IC50) in mg/ml (converted)

Compound	IC50
NCCCC[C@H](N)C(=O)N[C@@H](Cc1c[nH]c2ccccc12)C(=O)O [KW] (H-Lys-Trp-OH; N-terminus and C-terminus assumed)	12.7 mM
CC[C@H](C)[C@H](N)C(=O)N[C@@H](Cc1ccc(O)cc1)C(=O)O [IY] (H-Ile-Tyr-OH; N-terminus and C-terminus assumed)	12.2 mM
CC(C)[C@H](N)C(=O)N[C@@H](C)C(=O)N1CCC[C@H]1C(=O)O [VAP] (H-Val-Ala-Pro-OH; N-terminus and C-terminus assumed)	0.02 mM

Same assay, conditions: relative to acarbose, miglitol and voglibose

Compound	inhibition of α-glucosidase in words
C[C@H](N)C(=O)N1CCC[C@H]1C(=O)O [AP] (H-Ala-Pro-OH; N-terminus and C-terminus assumed)	strongly inhibit
CC(C)[C@H](N)C(=O)N[C@@H](C)C(=O)N1CCC[C@H]1C(=O)O [VAP] (H-Val-Ala-Pro-OH; N-terminus and C-terminus assumed)	strongly inhibit

System: α-glucosidase
Experiment: In-vitro determination of the type of inhibition (Lineweaver-Burk, hydrolysis of p-NPG)
Type: biochemical
Conditions: straight lines intersect at 1/Vmax
Protocol: The three straight lines are as follows: • Filled circle: […] • Empty circle: test in the presence of 50 μM of AP • Filled triangle: test in the presence of 100 μM of AP
Based on the initial rates, the Lineweaver-Burk representations for each concentration of inhibitor LKP were shown and the type of inhibition was determined. The synthetic LKP peptide was supplied by GENOSPHERE Biotechnologies.
Based on the initial rates, the Lineweaver-Burk representations for each concentration of inhibitor AP were shown and the type of inhibition was determined.

Compound	type of inhibition of the degradation of p-NPG
C[C@H](N)C(=O)N1CCC[C@H]1C(=O)O [AP] (H-Ala-Pro-OH; N-terminus and C-terminus assumed)	competitive
CC(C)C[C@H](N)C(=O)N[C@@H](CCCCN)C(=O)N1CCC[C@H]1C(=O)O [LKP] (H-Leu-Lys-Pro-OH; N-terminus and C-terminus assumed)	competitive

Molecular target: T2, DPP-IV from pig kidney (Sus scrofa, UniProt P22411)
T2 construct: The enzyme used is DPP-IV from pig kidney; purchased Sigma D7052; host or cells: pig kidney
T2 sequence (P22411 whole entry): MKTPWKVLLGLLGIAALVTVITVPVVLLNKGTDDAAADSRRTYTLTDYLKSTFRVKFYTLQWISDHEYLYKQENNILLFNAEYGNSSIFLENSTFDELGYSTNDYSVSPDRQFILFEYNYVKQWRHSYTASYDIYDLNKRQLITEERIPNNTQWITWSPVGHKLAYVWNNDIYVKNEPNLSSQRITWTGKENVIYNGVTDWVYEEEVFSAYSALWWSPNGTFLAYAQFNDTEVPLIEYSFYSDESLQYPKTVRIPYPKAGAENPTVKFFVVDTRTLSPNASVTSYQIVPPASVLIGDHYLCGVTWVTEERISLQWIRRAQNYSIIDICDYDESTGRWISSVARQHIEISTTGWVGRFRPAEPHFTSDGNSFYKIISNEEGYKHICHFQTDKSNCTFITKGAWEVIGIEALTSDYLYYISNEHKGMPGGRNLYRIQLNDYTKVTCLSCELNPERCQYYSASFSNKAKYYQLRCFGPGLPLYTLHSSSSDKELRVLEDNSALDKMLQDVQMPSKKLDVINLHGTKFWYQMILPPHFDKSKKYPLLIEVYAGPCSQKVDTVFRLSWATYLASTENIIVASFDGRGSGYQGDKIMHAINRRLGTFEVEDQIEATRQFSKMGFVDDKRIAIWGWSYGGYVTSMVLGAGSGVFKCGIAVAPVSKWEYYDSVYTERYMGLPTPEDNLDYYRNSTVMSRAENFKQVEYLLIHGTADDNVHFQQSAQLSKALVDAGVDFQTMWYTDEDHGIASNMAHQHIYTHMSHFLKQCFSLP
Experiment: In-vitro determination of the inhibition of DPP-IV by synthetic peptides (Example 14)
Type: biochemical
Conditions: Table 13; substrate Gly-L-Pro-p-nitroanilide, pH 8.0, 37° C.; read-out: inhibitory activity of DPP-IV (IC50)
Protocol: The inhibitory activity of synthetic peptides can be measured in vitro according to the following protocol:
25 μl of the substrate Gly-L-Pro-p-nitroanilide in 0.1 M Tris-HCL buffer (pH 8.0) at 1.6 mM is mixed with 25 μl of the peptide sample or of reference inhibitor at different concentrations. The samples are solubilized beforehand in Tris HCL buffer (pH8.0).
After preincubation at 37° C. for 10 min, 50 μl of the DPP-IV enzyme at a concentration of 0.01 U/ml in 0.1 M Tris-HCL buffer (pH 8.0) is added to the mixture in order to start the reaction. The reaction medium is incubated for 60 min at 37° C. and then the reaction is stopped by adding 100 μl of 1M sodium acetate buffer (pH4).
The quantity of product formed (p-nitroanilide) is measured by reading the absorbance at 385 nm using the Fluostar Omega spectrophotometer (BMG Labtech, Germany).
as §1
The substrate used is Gly-L-Pro-p-nitroanilide hydrochloride (available from Sigma under reference G0513).
The enzyme used is DPP-IV from pig kidney (available from Sigma under reference D7052).
The reference inhibitor is Diprotin A, corresponding to the Ile-Pro-Ile tripeptide (available from Sigma under reference 19759).

Compound	IC50
C[C@H](N)C(=O)N1CCC[C@H]1C(=O)O [AP] (H-Ala-Pro-OH; N-terminus and C-terminus assumed)	4.78 ± 0.284 mM
CC(C)[C@H](N)C(=O)N[C@@H](C)C(=O)N1CCC[C@H]1C(=O)O [VAP] (H-Val-Ala-Pro-OH; N-terminus and C-terminus assumed)	4.82 ± 2.3 mM

Same assay, conditions: relative to the reference Diprotin A

Compound	inhibition of DPP-IV in words
C[C@H](N)C(=O)N1CCC[C@H]1C(=O)O [AP] (H-Ala-Pro-OH; N-terminus and C-terminus assumed)	very weakly
CC(C)[C@H](N)C(=O)N[C@@H](C)C(=O)N1CCC[C@H]1C(=O)O [VAP] (H-Val-Ala-Pro-OH; N-terminus and C-terminus assumed)	very weakly

From patent US10500245B2, “Compositions for preventing and/or treating pathological conditions associated with alpha-glucosidase” (UNIVERSITE DE LA ROCHELLE, priority 2014, dated 2019)
